Measured values from article PMC9238736 (Journal of the American Heart Association: Cardiovascular …, 2022).

Assays:
[1] = biological target: T1, hKir2.1 (Homo sapiens, UniProt P63252); test: whole-cell patch clamp, hyperpolarizing ramp, […] °C
T1 sequence (P63252 1-427): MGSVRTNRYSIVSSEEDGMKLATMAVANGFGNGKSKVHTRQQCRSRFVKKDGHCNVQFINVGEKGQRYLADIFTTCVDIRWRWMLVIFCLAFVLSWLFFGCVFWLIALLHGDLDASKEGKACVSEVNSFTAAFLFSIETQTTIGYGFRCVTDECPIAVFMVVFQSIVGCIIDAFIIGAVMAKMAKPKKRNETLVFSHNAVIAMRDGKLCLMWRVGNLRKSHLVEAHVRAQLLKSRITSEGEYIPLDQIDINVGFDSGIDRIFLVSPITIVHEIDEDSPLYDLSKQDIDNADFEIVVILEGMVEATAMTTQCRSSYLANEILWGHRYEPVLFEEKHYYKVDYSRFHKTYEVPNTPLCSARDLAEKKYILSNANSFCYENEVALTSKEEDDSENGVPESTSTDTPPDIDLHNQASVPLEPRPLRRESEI

[2] = biological target: human ether‐à‐go‐go–related gene (hERG) channel (Homo sapiens, UniProt Q12809)
[3] = biological target: T2, hKir2.2 (Homo sapiens, UniProt Q14500); test: whole-cell patch clamp, hyperpolarizing ramp; type: cell-based
T2 sequence (Q14500 1-433): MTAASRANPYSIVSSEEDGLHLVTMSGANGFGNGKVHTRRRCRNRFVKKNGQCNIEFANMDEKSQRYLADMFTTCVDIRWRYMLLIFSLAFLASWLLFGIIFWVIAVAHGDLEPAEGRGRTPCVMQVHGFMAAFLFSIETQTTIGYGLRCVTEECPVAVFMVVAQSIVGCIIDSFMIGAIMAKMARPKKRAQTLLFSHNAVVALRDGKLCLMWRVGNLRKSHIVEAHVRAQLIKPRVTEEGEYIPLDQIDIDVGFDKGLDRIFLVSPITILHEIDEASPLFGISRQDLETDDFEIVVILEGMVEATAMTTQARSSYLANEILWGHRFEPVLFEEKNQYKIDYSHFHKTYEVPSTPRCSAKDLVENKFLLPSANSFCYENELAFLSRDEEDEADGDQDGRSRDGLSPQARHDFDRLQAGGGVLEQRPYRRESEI

Chain of human ether‐à‐go‐go–related gene (hERG) channel (Q12809 whole entry): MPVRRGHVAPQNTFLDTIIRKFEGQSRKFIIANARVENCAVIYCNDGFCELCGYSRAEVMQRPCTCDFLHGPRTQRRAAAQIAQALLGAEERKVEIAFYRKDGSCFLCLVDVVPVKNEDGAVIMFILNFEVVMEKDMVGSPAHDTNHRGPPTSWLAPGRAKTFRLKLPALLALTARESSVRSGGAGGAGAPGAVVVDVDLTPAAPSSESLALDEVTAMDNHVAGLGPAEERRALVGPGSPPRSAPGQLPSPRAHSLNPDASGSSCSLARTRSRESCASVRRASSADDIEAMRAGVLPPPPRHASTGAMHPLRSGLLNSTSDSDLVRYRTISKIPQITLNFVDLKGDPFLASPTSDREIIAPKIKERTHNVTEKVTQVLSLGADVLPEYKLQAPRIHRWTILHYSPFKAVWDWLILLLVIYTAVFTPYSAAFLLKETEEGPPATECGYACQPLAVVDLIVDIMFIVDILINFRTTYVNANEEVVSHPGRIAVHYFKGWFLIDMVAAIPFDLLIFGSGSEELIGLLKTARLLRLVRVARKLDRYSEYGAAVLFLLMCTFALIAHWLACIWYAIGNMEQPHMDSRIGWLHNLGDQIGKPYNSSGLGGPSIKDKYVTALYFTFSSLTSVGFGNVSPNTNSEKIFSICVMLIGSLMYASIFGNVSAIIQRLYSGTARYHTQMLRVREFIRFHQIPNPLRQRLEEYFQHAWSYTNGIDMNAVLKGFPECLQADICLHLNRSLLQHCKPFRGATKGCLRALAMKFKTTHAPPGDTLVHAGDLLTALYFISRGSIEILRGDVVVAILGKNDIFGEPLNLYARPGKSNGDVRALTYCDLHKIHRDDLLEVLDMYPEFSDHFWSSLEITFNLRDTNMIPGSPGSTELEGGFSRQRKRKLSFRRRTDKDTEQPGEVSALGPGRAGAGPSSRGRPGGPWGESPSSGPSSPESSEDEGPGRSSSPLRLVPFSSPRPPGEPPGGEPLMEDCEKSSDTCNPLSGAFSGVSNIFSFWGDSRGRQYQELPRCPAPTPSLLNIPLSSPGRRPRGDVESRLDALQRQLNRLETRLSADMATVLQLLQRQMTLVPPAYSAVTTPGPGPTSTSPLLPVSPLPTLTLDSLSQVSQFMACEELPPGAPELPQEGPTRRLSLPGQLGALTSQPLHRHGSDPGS

SMILES | IC50 [1] [nM] | IC50 [2] [nM] | IC50 [3] [nM]
CCC(=O)C(CC(C)N(C)C)(c1ccccc1)c1ccccc1 (racemic) [methadone] | 2900 | 2900 | 
CN(C)C(=O)C(CCN1CCC(O)(c2ccc(Cl)cc2)CC1)(c1ccccc1)c1ccccc1 [loperamide] |  |  | 1200
